Results reported in patent publication US20090247477A1, “Methods of suppressing uv light-induced skin carcinogenesis” (priority 2005, published 2009).

Key:
[1] = system: UVB radiation-induced skin tumors; test: UVB-induced skin carcinogenesis in high-risk mice, dietary treatment; format: in vivo, mouse; settings: vs control
Description: Seeds of broccoli (Brassica oleracea italica, cv. DeCicco) were used to grow sprouts as described in Example 1. Growth was arrested after 3 days by plunging sprouts into boiling water and allowed to boil for ˜30 min. This treatment inactivated the endogenous sprout myrosinase and extracted the glucosinolates. […] The powder was mixed with the mouse diet (powdered AIN 76A) to give the equivalent of 10 μmol (low dose) or 50 μmol (high dose) of glucoraphanin per 3 grams of diet.
Body weights and formation of tumors larger than 1 mm in diameter were determined weekly.
UVB radiation was provided by a bank of UV lamps (FS72T12-UVB-HO, National Biological Corporation, Twinsburg, Ohio) emitting UVB (280-320 nm, 65% of total energy) and UVA (320-375 nm, 35% of total energy). The radiant dose of UVB was quantified with a UVB Daavlin Flex Control Integrating Dosimeter and further calibrated with an IL-1400 radiometer (International Light, Newburyport, Mass.).
The animals were irradiated for 20 weeks on Tuesdays and Fridays with a radiant exposure of 30 mJ/cm^2/session. […]
Tumor volumes were determined by measuring the height, length, and width of each mass that was larger than 1 mm in diameter. The average of the three measurements was used as the diameter and the volume was calculated (v=4πr^3/3). All mice were euthanized on the same day and the size and multiplicity of tumors was determined. […]

[2] = system: glutathione; settings: topical extract containing 1 μmol sulforaphane, 24 h, vs vehicle
Description: Female SKH-1 hairless mice (4 weeks old) were obtained from Charles River Breeding Laboratories (Wilmington, Mass.) and were acclimatized in our animal facility for 2 weeks before the start of the experiment. The animals were kept on a 12-h light/12-h dark cycle, 35% humidity, and given free access to water and pelleted AIN 76A diet (Harlan TekLad, free of inducers). All animal experiments were in compliance with the National Institutes of Health Guidelines and were approved by the Johns Hopkins University Animal Care and Use Committee.
The animals were euthanized 24 h later and their dorsal skins were dissected using a rectangular template (2.5×5 cm) and frozen in liquid N2. […] Centrifugation at 14,000 g for 20 min at 4° C. yielded clear supernatant fractions, aliquots of which were used for determination of protein content, enzyme activity, and total glutathione levels as described below for the cell culture experiments.

[3] = system: PE murine keratinocytes; settings: 5 μM for 24 h, UVA 10 J/cm^2, PE cells
Description: Reactive oxygen intermediates generated by the UV radiation were quantified by the fluorescent probe 2′,7′-dichlorodinitrofluorescein and fluorescence intensity was measured (expressed as a ratio of exposed to non-exposed cells).
PE cells (50,000 per well) were seeded into 24-well plates and grown for 48 h. […] On the day of the experiments, after removing the medium, the cells were incubated with 100 μM 2′,7′-dichlorodinitrofluorescein diacetate in 500 μl of fresh medium (Molecular Probes, Eugene, Oreg.) for 30 min. The medium containing the fluorescent probe was then removed, the cells were washed with DPBS, and exposed to UVA radiation (10 J/cm^2) Control cells were kept in the dark. Cells were detached with trypsin, suspended in 2.0 ml of DPBS, and the intensity of fluorescence was determined in cell suspensions at 520 nm with an excitation of 485 nm in 2-ml cuvettes in a Perkin-Elmer LS50 spectrofluorimeter.

| SMILES | inhibition in total tumor volume per mouse ([1]; high dose) | inhibition in total tumor volume per mouse ([1]; low dose) | elevation of total glutathione levels in skin [2] | reduction in reactive oxygen intermediates generated by UV radiation [3] |
| --- | --- | --- | --- | --- |
| C[S+]([O-])CCCC/C(=N\OS(=O)(=O)O)S[C@@H]1O[C@H](CO)[C@@H](O)[C@H](O)[C@H]1O (stereo partly shown) [glucoraphanin] | 70% | 70% | – | – |
| C[S+]([O-])CCCCN=C=S (stereo not shown) [sulforaphane] | – | – | ~15% | 50% |
